Data from patent publication US20040242669A1, “Method of treating deficits associated with brain injury” (priority 2003, published 2004).
Marks after values point to notes of the source that are not given here.

Legend:
Assay type in all cases: in vivo, rat
[1] = system: reduced glutathione in brain areas of rats subjected to hypobaric hypoxia; assay: Brain glutathione content and redox index after hypobaric hypoxia; conditions: for reduced glutathione content: mean ± S.E.M.
Description: At the end of the behavioral studies, the brain of animals sacrificed by decapitation were taken and rapidly frozen for analysis. Dissection and weighing were carried out at −25° C. The frozen forebrains were immediately powered under liquid nitrogen by an electromechanical apparatus and stored at […]. The assay of reduced and oxidized glutathione by 5,5′-dithibis-(2-nitrobenzoic acid) in frozen forebrain powder was carried out within 3 h, utilizing perchloric acid and N-ethylmaleimide in presence of ethylenediamidetetraacetic acid for the extraction procedure (Tietze, Anal Biochem, 27, 502-522, (1969)).
(§1) In the first experiment, the effects of ropinirole or DHECP were studied on amnesia induced by hypobaric hypoxia in rats. After a 7-day pretreatment with ropinirole, DHECP or saline, a group of animals was subjected to acute hypobaric hypoxia by means of a hypobaric chamber (Chantiers et Ateliers de Bretagne, France) causing depression to 300 mmHg (Boismare et al., Gerentology, 24, 6-13 (1978)). After 3 min in the chamber, the animals were removed and admitted for behavioral testing. Intact control rats were also introduced into the chamber but not subjected to hypobaric hypoxia.
All animals used for hypobaric hypoxia induced amnesia and for chronic brain occlusive ischemia was sacrificed at the end behavioral procedure for biochemical analyses.

kainate-induced epilepsy = assay: Kainate-induced convulsions (epilepsy); conditions: for Latency (s) to the first tonic-clonic seizure / Seizures (total number) / Mortality (%): kainic acid 10 μg/2 μl i.c.v.; for Latency (s) to the first tonic-clonic seizure / Seizures (total number): 30-min observation, mean ± S.E.M.; for Mortality (%): checked 2 h after convulsive agent
Description: (§2) Male rats of the Sprague-Dawley strain (purchased from Charles River, Italy) weighing 280±20 g were used throughout all experiments. The animals were housed two-three to a cage under a constant light-dark cycle (lights on between 8.00 and 20.00) at 21° C. Commercial food and tap water were available ad libitum. All animals were used only once in the behavioral experiments.
Another group of animals were implanted under ether anaesthesia with a permanent plastic cannula in the right lateral ventricle (foramen interventriculare, Konig and Klippel A 6360) with another cannula into the right jugular vein. These animals were sacrificed at the end of behavioral procedure and the brains were utilized for biochemical analysis. Data were taken from animals showing no abnormalities at the postmortem examination. All experiments were carried out according to the European Community Council Directive 86/609/ECC and efforts were made to minimize animal suffering and to reduce the number of animals used.
Ropinirole (ropinirole hydrochloride, SmithKline Beecham, Italy) and dihydroergocryptine (DHECP) α-dihydroergocryptine methanesulfonate, Monsanto, Italy) were dissolved in saline and injected subcutaneously (s.c.) at the dose of 0.5 and 1 mg/kg/day for 7 days. In the experiments with kainate-induced convulsions, […], and again at the same time of the intracerebroventricular (i.c.v) injection on kainic acid; Control animals received an injection of saline alone with the same procedure.
Kainic acid (Sigma, USA) was dissolved in saline and injected i.c.v. at the dose of 10 μg/2 μi.
Over a 30-min observation, the following items were recorded per each animal receiving an i.c.v. injection of kainic acid: latency in s to the first tonic-clonic seizure; total number of seizures, percent rate of mortality (checked 2 h after the administration of the convulsive agent).
Behavioral scoring of kainate-induced convulsions was started immediately after i.c.v. injection of the drug and proceeded for 30 min. Ropinirole, DHECP or saline were injected twice, 30 min prior and, again, at the same time of the i.c.v. administration of kainic acid.

[2] = system: animals with hypobaric hypoxia-induced amnesia; assay: Step-through passive avoidance, hypobaric hypoxia-induced amnesia; conditions: for Latency: hypobaric hypoxia, median latency to re-enter dark box, max 300 s
Description: as §2
Ropinirole (ropinirole hydrochloride, SmithKline Beecham, Italy) and dihydroergocryptine (DHECP) α-dihydroergocryptine methanesulfonate, Monsanto, Italy) were dissolved in saline and injected subcutaneously (s.c.) at the dose of 0.5 and 1 mg/kg/day for 7 days. In the experiments with kainate-induced convulsions, ropinirole or DHECP were injected intravenously (i.v.) 30 min prior, and again at the same time of the intracerebroventricular (i.c.v) injection on kainic acid; Control animals received an injection of saline alone with the same procedure.
Passive avoidance behaviour was studied in a step-through type of passive avoidance situation (Ader et al., Psycon Sci, 26, 125-128 (1972)). Briefly the rats were adapted to the apparatus consisting of a large dark compartment equipped with a grid floor and a mesh-covered elevated runway attached to the front centre of the dark chamber. Adaptation training was followed by a single trial in which the rats were placed on the elevated platform and allowed to enter the dark box. Three such trials were given on the next day with an intertrial interval of 5 min after the trial. The rats received a single 2-s unavoidable scrambled foot-shock (0.20 mA) immediately after entering the dark compartment. Retention of the response was tested 24 h after the learning trial. The rats were placed on the elevated runway and the latency to re-enter the shock compartment was recorded up to a maximum of 300 s.
as §1

[3] = kainate-induced seizures, summary of Table 3

CC(C)C[C@H]1C(=O)N2CCC[C@H]2[C@]2(O)O[C@](NC(=O)[C@@H]3C[C@@H]4c5cccc6[nH]cc(c56)C[C@H]4N(C)C3)(C(C)C)C(=O)N12 [DHECP, α-dihydroergocryptine methanesulfonate]
glutathione redox index (glutathione reduced/glutathione oxidized ratio) ([1]; Cortex, 0.5 mg/kg): 2.5 | reduced glutathione content ([1]; Cortex, 0.5 mg/kg): 2.2 ± 0.2 mM | glutathione redox index (glutathione reduced/glutathione oxidized ratio) ([1]; Cortex, 1 mg/kg): 2.3 | reduced glutathione content ([1]; Cortex, 1 mg/kg): 2.5 ± 0.2 mM | glutathione redox index (glutathione reduced/glutathione oxidized ratio) ([1]; Hippocampus, 0.5 mg/kg): 1.8 | reduced glutathione content ([1]; Hippocampus, 0.5 mg/kg): 2.1 ± 0.2 mM | glutathione redox index (glutathione reduced/glutathione oxidized ratio) ([1]; Hippocampus, 1 mg/kg): 2.2 | reduced glutathione content ([1]; Hippocampus, 1 mg/kg): 2.4 ± 0.2 mM | glutathione redox index (glutathione reduced/glutathione oxidized ratio) ([1]; Hypothalamus, 0.5 mg/kg): 2.6 | reduced glutathione content ([1]; Hypothalamus, 0.5 mg/kg): 2.8 ± 0.2 mM | glutathione redox index (glutathione reduced/glutathione oxidized ratio) ([1]; Hypothalamus, 1 mg/kg): 2.8 | reduced glutathione content ([1]; Hypothalamus, 1 mg/kg): 2.8 ± 0.2 mM | glutathione redox index (glutathione reduced/glutathione oxidized ratio) ([1]; Striatum, 0.5 mg/kg): 0.7 | reduced glutathione content ([1]; Striatum, 0.5 mg/kg): 1.8 ± 0.2 mM | glutathione redox index (glutathione reduced/glutathione oxidized ratio) ([1]; Striatum, 1 mg/kg): 1.7 | reduced glutathione content ([1]; Striatum, 1 mg/kg): 2.5 ± 0.2 mM | reduced glutathione content and glutathione redox index (effect of treatment, in words) ([1]; cortex, hippocampus and hypothalamus, both doses): increase | reduced glutathione content and glutathione redox index (effect of treatment, in words) ([1]; striatum): only with the greater dose | latency to the first tonic-clonic seizure (effect of treatment, in words) (kainate-induced epilepsy; [3]): did not modify | percent mortality rate (effect of treatment, in words) (kainate-induced epilepsy; [3]): significant decrease | total number of kainate-induced seizures (effect of treatment, in words) (kainate-induced epilepsy; [3]): did not modify | Latency (s) to the first tonic-clonic seizure (kainate-induced epilepsy; 0.5 mg/kg injected s.c. twice (30 min prior and at kainic acid)): 56.9 ± 8.5 s | Seizures (total number) (kainate-induced epilepsy; 0.5 mg/kg injected s.c. twice): 7.8 ± 1.0 | Mortality (%) (kainate-induced epilepsy; 0.5 mg/kg injected s.c. twice): 10^a % | Latency (s) to the first tonic-clonic seizure (kainate-induced epilepsy; 1 mg/kg injected s.c. twice (30 min prior and at kainic acid)): 69.2 ± 6.5 s | Seizures (total number) (kainate-induced epilepsy; 1 mg/kg injected s.c. twice): 5.7 ± 1.1 | Mortality (%) (kainate-induced epilepsy; 1 mg/kg injected s.c. twice): 10^a % | latency to re-enter the dark box (effect of treatment, in words) ([2]; hypobaric hypoxia-induced amnesia, summary of Table 1): increase in these behavioral parameters, however, for the latter only with the greater dose | Latency ([2]; 0.5 mg/kg/day s.c. for 7 days): 30^e | Latency ([2]; 1 mg/kg/day s.c. for 7 days): 74^f
